According to patent publication US20220008514A1, “COMBINED USE OF SELECTIVE SEROTONIN REUPTAKE INHIBITORS AND HEMATOPOIETIC GROWTH FACTORS FOR TREATING HEMATOPOIETIC DISEASES” (IMAGINE INSTITUT DES MALADIES GENETIQUES NECKER ENFANTS …, priority 2018, published 2022):

Experiments:
[1] = system: erythroid cells generated from CD34+ cord blood progenitor cells; assay: Human cord blood erythroid in vitro cell culture, erythroid proliferation (FIG. 3); format: cell-based; details: serum-free medium with EPO (2 mU/ml)+IL-3 (10 ng/ml)+SCF (50 ng/ml)
Description: FIG. 3. Human in vitro experiments (effect of 5-HT combined with EPO). To determine the role played by serotonin in erythroid proliferation, inventors used a well-defined culture system that closely mimics the proliferation and differentiation of erythroid precursors in vivo. […] Erythroid cells were generated from CD34^+ cord blood progenitor cells in serum-free medium in the presence of EPO (2 mU/ml)+IL-3 (10 ng/ml)+stem cell factor (SCF; 50 ng/ml). Throughout data are mean±SEM. Unpaired t-test and Pearson linear and non-linear regressions were used when appropriate. *P<0.05, **P<0.005, ***P<0.0005.
Erythroid cells were generated from CD34^+ cord blood progenitor cells in serum-free medium in the presence of EPO (2 mU/ml)+IL-3 (10 ng/ml)+stem cell factor (SCF; 50 ng/ml) as previously described in Zermati et al., (2000) Exp. Hematol. 28:885-894.

[2] = system: CD71+/TER119+ population in Tph1+/- mice; assay: Sub-lethal irradiation in Tph1+/- mice, fluoxetine versus placebo, erythroid precursor immunophenotyping (FIG. 5C, 5D); format: in vivo, mouse; details: starting on day 7 following sub-lethal irradiation, compared to placebo
[3] = system: irradiation-induced cytopenia in WT C57BL/6 mice; assay: Sub-lethal irradiation-induced cytopenia in mice: SSRI, hematopoietic growth factor or both (FIG. 7, 8, 9, Table 1); format: in vivo, mouse; details: At Day 17 from sublethal irradiation
[4] = system: chemotherapy induced aplasia; assay: Human cohort study: effect of SSRI on chemotherapy-induced aplasia after autologous HSCT (FIG. 6); format: in vivo; details: patients at the time of autologous HSCT after myeloablative chemotherapy, versus matched controls not under SSRI
Description: FIG. 6. Human cohort study (effect of SSRI on chemotherapy induced aplasia). A reduced duration of aplasia is observed in patients treated with SSRI at the time of autologous HSCT (x), in comparison with the duration of aplasia observed for patients having not been under SSRI medication (+).
In order to evaluate the impact of treatment with SSRI on chemotherapy-induced aplasia, data of all patients benefiting from autologous hematopoietic stem cell transplantation (HSCT) from 2010 to 2017 in the hematology department of Necker Hospital, Paris, France were screened. Data from 22 patients who were under therapy with SSRI for usual indications at the time of autologous HSCT retrospectively reviewed, and compared with 66 control patients (3 controls per patient) matched for confounding factors (age, sex, disease, response of disease before therapy, conditioning regimen, date of transplant and number of CD34+ cells injected). It is observed a reduced duration of aplasia (a criterion of which, commonly described in the art, being a number of polynuclear neutrophils below 500/mm^3) in patients who were treated with SSRI at the time of autologous HSCT.

[5] = system: anemia after sub-lethal irradiation in WT mice; assay: Sub-lethal irradiation anemia model in WT mice, fluoxetine versus placebo (FIG. 5A, 5B); format: in vivo, mouse; details: fluoxetine for 7 days followed by sub-lethal irradiation

SMILES: NCCc1c[nH]c2ccc(O)cc12 [5-HT, 5-hydroxytryptamine]
- erythroid proliferation [1]: significantly enhances erythroid proliferation

SMILES: Cn1c2c(c3ccccc31)CCNCC2 [PNU 22394]
- erythroid proliferation [1]: significantly enhances erythroid proliferation

SMILES: CNCC[C@@H](Oc1ccc(C(F)(F)F)cc1)c1ccccc1 (racemic) [fluoxetine, (RS)-N-methyl-3-phenyl-3-propan-1-amine]
- CD71+/TER119+ population [2]: significant increase
- % of mice with Hemoglobin level ≤8 g/dl [3]: 100%
- % of mice with Normal Hemoglobin level [3]: 0%
- % of mice with Normal neutrophil number [3]: 20%
- % of mice with Normal platelet level [3]: 0%
- duration (length) of aplasia [4]: considerably reduced by at least two days
- day of rapid and significant increase in the number of reticulocytes [5]: 3 days
- day of normalization of Hb levels ([5]; placebo no normalization until day 22): 11 days
